Results: patent publication US8648066B2 (Exelixis, Inc., priority 2009, dated 2014)

Target: mTOR/GbL/Raptor (mTORC1) (Homo sapiens, UniProt P42345)
Experiment: mTOR/GbL/Raptor (mTORC1) ELISA assay
Assay type: biochemical
Settings: phosphorylation of 4E-BP1; 0.2 nM mTORC1, 10 μM ATP; read-out: IC50 in this assay (mTORC1 ELISA)
In short: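 ELISA read-out: phospho-4E-BP1 captured on Ni-chelate plates and detected with anti-phospho antibody plus HRP-anti-IgG luminescence. The kinase step ran 120 min at ambient temperature with 0.2 nM human mTORC1, 10 µM ATP, 50 nM His-4E-BP1, 10 mM MnCl2, pH 7.2 HEPES.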

IC50 [nM]	Structure (SMILES)
10 to 50	CC1(C)CCc2ncnc(N3CCOc4ccc(-c5cnc(Cl)c(NS(C)(=O)=O)c5)cc4C3)c2C1 [Example 623, N-{2-chloro-5-[4-(6,6-dimethyl-5,6,7,8-tetrahydroquinazolin-4-yl)-2,3,4,5-tetrahydro-1,4-benzoxazepin-7-yl]pyridin-3-yl}methanesulfonamide]
250 to 1000	CN(c1cc(-c2ccc3c(c2)CN(c2ncnc4c2CC(C)(C)CC4)CCO3)cnc1Cl)S(C)(=O)=O [Example 624, N-{2-chloro-5-[4-(6,6-dimethyl-5,6,7,8-tetrahydroquinazolin-4-yl)-2,3,4,5-tetrahydro-1,4-benzoxazepin-7-yl]pyridin-3-yl}-N-methylmethanesulfonamide]
50 to 250	CC1(C)CCc2ncnc(N3CCOc4ccc(-c5cnc(C#N)c(NS(C)(=O)=O)c5)cc4C3)c2C1 [Example 625, N-{2-cyano-5-[4-(6,6-dimethyl-5,6,7,8-tetrahydroquinazolin-4-yl)-2,3,4,5-tetrahydro-1,4-benzoxazepin-7-yl]pyridin-3-yl}methanesulfonamide]
10 to 50	CCOc1ncc(-c2ccc3c(c2)CN(c2ncnc4c2CC(C)(C)CC4)CCO3)cc1NS(C)(=O)=O [Example 626, N-{5-[4-(6,6-dimethyl-5,6,7,8-tetrahydroquinazolin-4-yl)-2,3,4,5-tetrahydro-1,4-benzoxazepin-7-yl]-2-(ethyloxy)pyridin-3-yl}methanesulfonamide]
50 to 250	CNc1ncc(-c2ccc3c(c2)CN(c2ncnc4c2CC(C)(C)CC4)CCO3)cc1NS(C)(=O)=O [Example 627, N-{5-[4-(6,6-dimethyl-5,6,7,8-tetrahydroquinazolin-4-yl)-2,3,4,5-tetrahydro-1,4-benzoxazepin-7-yl]-2-(methylamino)pyridin-3-yl}methanesulfonamide]
10 to 50	COc1ncc(-c2ccc3c(c2)CN(c2ncnc4c2CC(C)(C)CC4)CCO3)cc1NS(C)(=O)=O [Example 628, N-{5-[4-(6,6-dimethyl-5,6,7,8-tetrahydroquinazolin-4-yl)-2,3,4,5-tetrahydro-1,4-benzoxazepin-7-yl]-2-(methyloxy)pyridin-3-yl}methanesulfonamide]
250 to 1000	CC1(C)CCc2ncnc(N3CCOc4ccc(-c5cnc(Nc6ccccc6)c(NS(C)(=O)=O)c5)cc4C3)c2C1 [Example 629, N-{5-[4-(6,6-dimethyl-5,6,7,8-tetrahydroquinazolin-4-yl)-2,3,4,5-tetrahydro-1,4-benzoxazepin-7-yl]-2-(phenylamino)pyridin-3-yl}methanesulfonamide]
≥ 2000	CC1(C)CCc2ncnc(N3CCOc4ccc(-c5cnc(OCc6ccccc6)c(NS(C)(=O)=O)c5)cc4C3)c2C1 [Example 631, N-{5-[4-(6,6-dimethyl-5,6,7,8-tetrahydroquinazolin-4-yl)-2,3,4,5-tetrahydro-1,4-benzoxazepin-7-yl]-2-[(phenylmethyl)oxy]pyridin-3-yl}methanesulfonamide]
250 to 1000	CC1(C)CCc2ncnc(N3CCOc4ccc(-c5cnc(F)c(NS(C)(=O)=O)c5)cc4C3)c2C1 [Example 632, N-{5-[4-(6,6-dimethyl-5,6,7,8-tetrahydroquinazolin-4-yl)-2,3,4,5-tetrahydro-1,4-benzoxazepin-7-yl]-2-fluoropyridin-3-yl}methanesulfonamide]
50 to 250	Cc1ncc(-c2ccc3c(c2)CN(c2ncnc4c2CC(C)(C)CC4)CCO3)cc1NS(C)(=O)=O [Example 633, N-{5-[4-(6,6-dimethyl-5,6,7,8-tetrahydroquinazolin-4-yl)-2,3,4,5-tetrahydro-1,4-benzoxazepin-7-yl]-2-methylpyridin-3-yl}methanesulfonamide]
250 to 1000	CC1(C)CCc2ncnc(N3CCOc4ccc(-c5cncc(NS(C)(=O)=O)c5)cc4C3)c2C1 [Example 634, N-{5-[4-(6,6-dimethyl-5,6,7,8-tetrahydroquinazolin-4-yl)-2,3,4,5-tetrahydro-1,4-benzoxazepin-7-yl]pyridin-3-yl}methanesulfonamide]
250 to 1000	CNCCN(C)c1ncnc(N2CCOc3ccc(-c4cnc5nc(C6CC6)[nH]c5c4)cc3C2)c1C [Example 635, N-{6-[7-(2-cyclopropyl-1H-imidazo[4,5-b]pyridin-6-yl)-2,3-dihydro-1,4-benzoxazepin-4(5H)-yl]-5-methylpyrimidin-4-yl}-N,N′-dimethylethane-1,2-diamine]
10 to 50	CC1(C)CCc2ncnc(N3CCOc4ccc(-c5cnc(N)c(S(=O)(=O)NCC(N)=O)c5)cc4C3)c2C1 [Example 636, N~2~-({2-amino-5-[4-(6,6-dimethyl-5,6,7,8-tetrahydroquinazolin-4-yl)-2,3,4,5-tetrahydro-1,4-benzoxazepin-7-yl]pyridin-3-yl}sulfonyl)glycinamide]
250 to 1000	CCNc1nc(C)nc(N2CCOc3ccc(-c4cnc5nc(C)[nH]c5c4)cc3C2)c1C [Example 637, N-ethyl-2,5-dimethyl-6-[7-(2-methyl-1H-imidazo[4,5-b]pyridin-6-yl)-2,3-dihydro-1,4-benzoxazepin-4(5H)-yl]pyrimidin-4-amine]
250 to 1000	CCNc1ncnc(N2CCOc3ccc(-c4cnc5nc(C)[nH]c5c4)cc3C2)c1C [Example 639, N-ethyl-5-methyl-6-[7-(2-methyl-1H-imidazo[4,5-b]pyridin-6-yl)-2,3-dihydro-1,4-benzoxazepin-4(5H)-yl]pyrimidin-4-amine]
250 to 1000	CCNc1nc2ccc(-c3ccc4c(c3)CN(c3ncnc(Nc5ccc(OC)cc5)c3C)CCO4)cc2[nH]1 [Example 640, N-ethyl-6-[4-(5-methyl-6-{[4-(methyloxy)phenyl]amino}pyrimidin-4-yl)-2,3,4,5-tetrahydro-1,4-benzoxazepin-7-yl]-1H-benzimidazol-2-amine]
10 to 50	CCNc1nc2ncc(-c3ccc4c(c3)CN(c3nc(C)nc5cc(OC)ccc35)CCO4)cc2[nH]1 [Example 642, N-ethyl-6-{4-[2-methyl-7-(methyloxy)quinazolin-4-yl]-2,3,4,5-tetrahydro-1,4-benzoxazepin-7-yl}-1H-imidazo[4,5-b]pyridin-2-amine]
250 to 1000	CCNc1nc2ccc(-c3ccc4c(c3)CN(c3ncnc(NCC)c3C)CCO4)cc2[nH]1 [Example 643, N-ethyl-6-{4-[6-(ethylamino)-5-methylpyrimidin-4-yl]-2,3,4,5-tetrahydro-1,4-benzoxazepin-7-yl}-1H-benzimidazol-2-amine]
250 to 1000	COCCOc1cc(-c2ccc3c(c2)CN(c2nc(CN(C)C)nc4c2CC(C)(C)CC4)CCO3)ccc1OC [Example 648, 1-(6,6-dimethyl-4-{7-[4-(methyloxy)-3-{[2-(methyloxy)ethyl]oxy}phenyl]-2,3-dihydro-1,4-benzoxazepin-4(5H)-yl}-5,6,7,8-tetrahydroquinazolin-2-yl)-N,N-dimethylmethanamine]
250 to 1000	COc1ccc(-c2ccc3c(c2)CN(c2nc(CN(C)C)nc4c2CC(C)(C)CC4)CCO3)cc1OC(F)F [Example 649, 1-{4-[7-{3-[(difluoromethyl)oxy]-4-(methyloxy)phenyl}-2,3-dihydro-1,4-benzoxazepin-4(5H)-yl]-6,6-dimethyl-5,6,7,8-tetrahydroquinazolin-2-yl}-N,N-dimethylmethanamine]
50 to 250	COc1ccc(-c2ccc3c(c2)CN(c2nc(CN(C)C)nc4c2CC(C)(C)CC4)CCO3)cc1C(C)=O [Example 650, 1-[5-(4-{2-[(dimethylamino)methyl]-6,6-dimethyl-5,6,7,8-tetrahydroquinazolin-4-yl}-2,3,4,5-tetrahydro-1,4-benzoxazepin-7-yl)-2-(methyloxy)phenyl]ethanone]
